Laboratory results reported in PubChem BioAssay (NCI).
Where “and” joins values, the source holds several entries; their conditions need not be identical. Equal values may be shown once.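 Five concentrations, 48 hours, 96-well plates. The concentration for 50% growth inhibition is given as GI50. TGI: total growth inhibition.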

Assays:
Test in all cases: growth of human tumour cells (NCI), 48 h
CAKI-1 renal = system: CAKI-1 renal
DU-145 prostate = system: DU-145 prostate
EKVX NSCLC = system: EKVX NSCLC
HCT-15 colon = system: HCT-15 colon
HS 578T breast = system: HS 578T breast
IGROV1 ovarian = system: IGROV1 ovarian
MOLT-4 leukemia = system: MOLT-4 leukemia
NCI-H226 lung = system: NCI-H226 lung
NCI-H522 lung = system: NCI-H522 lung
SF-295 CNS = system: SF-295 CNS
SN12C renal = system: SN12C renal

Row | Structure (SMILES) | TGI (CAKI-1 renal) | TGI (DU-145 prostate) | TGI (EKVX NSCLC) | TGI (HCT-15 colon) | TGI (HS 578T breast) | TGI (IGROV1 ovarian) | TGI (MOLT-4 leukemia) | TGI (NCI-H226 lung) | TGI (NCI-H522 lung) | TGI (SF-295 CNS) | TGI (SN12C renal) | GI50 (EKVX NSCLC) | GI50 (HCT-15 colon) | GI50 (MOLT-4 leukemia) | GI50 (NCI-H226 lung) | GI50 (SF-295 CNS) | GI50 (SN12C renal)
1 | COc1ccc(N/N=C2\CCOc3ccc(C)cc3C2=O)cc1 | > 100 µM | > 100 µM | > 100 µM | 48.7 µM | > 100 µM | > 100 µM | 85.4 µM | 90.7 µM | > 100 µM | > 100 µM | > 100 µM | – | – | – | – | – | –
2 | CC(C)(C)N1CSC(=S)N(Cc2ccco2)C1 | 12.4 µM | 15.5 µM | 30.2 µM | 10.6 µM | 26.1 µM | 12.6 µM | 5.72 µM | 41.4 µM | 12 µM | 31.5 µM | 16.7 µM | – | – | – | – | – | –
3 | CC(=O)O[C@@H]1[C@H](C(C)C)[C@@H](OC(C)=O)C/C(C)=C/CC[C@]2(C)O[C@@H]12 | > 100 µM | > 100 µM | > 100 µM | > 100 µM | > 100 µM | > 100 µM | > 100 µM | > 100 µM | > 100 µM | > 100 µM | > 100 µM | – | – | – | – | – | –
4 | CCOC(=O)C1(C/C=C/CBr)Cc2ccccc2C1=O (stereo not given) | 7.27 µM | 28.3 µM | 28.7 µM | 5.73 µM | 24.4 µM | 10.3 µM | 8.31 µM | – | 3.11 µM | 22.1 µM | 6.41 µM | – | – | – | – | – | –
5 | O=C(NC(=O)c1ccccc1[N+](=O)[O-])Nc1ccc(Oc2ncc(Br)cn2)c(Cl)c1 | – | 0.0902 µM | – | > 42.7 µM | 0.0934 µM | – | – | 0.0292 µM and < 0.0313 µM | 0.0378 µM and 0.198 µM | 0.0465 µM | – | 0.868 µM | < 0.0258 µM | < 0.0222 µM | < 0.0175 µM | < 0.0184 µM | < 0.027 µM
6 | Nn1c(-c2ccccc2)nn(C(=O)c2ccccc2)c1=O | – | > 100 µM | > 100 µM | > 100 µM | > 100 µM | > 100 µM | > 100 µM | > 100 µM | > 100 µM | > 100 µM | > 100 µM | – | – | – | – | – | –
7 | O=[N+]([O-])c1ccc2c(c1)c(OCc1ccccc1)nn2Cc1ccccc1 | > 100 µM | > 100 µM | – | > 100 µM | > 100 µM | > 100 µM | > 100 µM | > 100 µM | > 100 µM | > 100 µM | > 100 µM | – | – | – | – | – | –
8 | CN1CCN(C2=NCCO2)CC1 | > 100 µM | > 100 µM | > 100 µM | > 100 µM | – | > 100 µM | > 100 µM | > 100 µM | > 100 µM | > 100 µM | > 100 µM | – | – | – | – | – | –
9 | COc1cc(C2c3cc4c(cc3OC(N3CCOCC3)C2C)OCO4)ccc1O (stereo not given) | 71.1 µM | > 100 µM | > 100 µM | > 100 µM | 41.9 µM | > 100 µM | 60.7 µM | – | 58.4 µM | 38.2 µM | > 100 µM | – | – | – | – | – | –
10 | COc1cc(Br)cc2cc(-c3cn4ccsc4n3)c(=O)oc12 | > 100 µM | > 100 µM | > 100 µM | > 100 µM | > 100 µM | > 100 µM | > 100 µM | – | > 100 µM | 76.6 µM | > 100 µM | – | – | – | – | – | –
